Patent US11845724B2, “USP30 inhibitors and uses thereof” (Vincere Biosciences, Inc., priority 2019, dated 2023)
Where two headings read alike, the source gives them in different places.

Experiments:
USP30 = USP30 (Homo sapiens (Human), UniProt Q70CQ3); experiment: Dundee MALDI-TOF mass spectrometry assay (IC50); type: biochemical; conditions: USP30 25 ng/μl, K48-linked diubiquitin 5.6 μM, avg, read-out: Dundee IC50 μM (avg in vitro MS assay)
Procedure: Compounds were tested in a MALDI-TOF assay based on the paper by Ritorto et al. (Ritorto et al. Screening of DUB activity and specificity by MALDI-TOF mass spectrometry. Nat. […] USP30 (25 ng/μl) tested against K48-linked diubiquitin (5.6 μM). USP30 was diluted in a buffer containing 40 mM Tris, 0.01% BSA, 1 mM DTT and K48 in 40 mM Tris, 0.01% BSA. The compounds were pre-incubated with the USP30 for 5 mins at room temp before the K48 dimer addition. The assay mixture was then incubated for 45 mins at room temp. The assay was stopped by the addition of TFA to a final concentration of 2% (v/v). […] Then 250 nl of these solutions were spotted onto an MTP AnchorChip 1,536 TF and this is analysed on the Bruker rapifleX MALDI-TOF.

[1] = molecular target: recombinant USP30 (amino acids 57-517 of the human sequence) (Homo sapiens (Human), UniProt Q70CQ3); experiment: In vitro USP30 biochemical assay (Ubiquitin-Rhodamine)
[2] = USP30 IC50 μM (avg), Ubiquitin-Rhodamine substrate 25 nM, 1.5 nM recombinant USP30
[3] = read-out: USP30 IC50 μM (avg), Ubiquitin-Rhodamine substrate 25 nM, 1.5 nM recombinant USP30

Chain of recombinant USP30 (amino acids 57-517 of the human sequence) (Q70CQ3 57-517): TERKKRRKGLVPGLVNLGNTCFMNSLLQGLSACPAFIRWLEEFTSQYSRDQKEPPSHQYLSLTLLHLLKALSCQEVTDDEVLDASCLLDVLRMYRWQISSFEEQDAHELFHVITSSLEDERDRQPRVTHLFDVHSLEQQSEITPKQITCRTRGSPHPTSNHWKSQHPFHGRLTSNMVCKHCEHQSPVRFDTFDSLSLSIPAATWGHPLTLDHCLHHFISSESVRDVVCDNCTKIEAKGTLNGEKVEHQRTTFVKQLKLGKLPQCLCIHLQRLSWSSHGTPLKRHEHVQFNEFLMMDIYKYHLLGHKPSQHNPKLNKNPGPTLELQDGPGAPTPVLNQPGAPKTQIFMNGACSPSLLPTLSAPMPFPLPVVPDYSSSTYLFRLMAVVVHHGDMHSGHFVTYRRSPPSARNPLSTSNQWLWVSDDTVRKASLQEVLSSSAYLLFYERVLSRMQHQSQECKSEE
Chain of USP30 (Q70CQ3 whole entry): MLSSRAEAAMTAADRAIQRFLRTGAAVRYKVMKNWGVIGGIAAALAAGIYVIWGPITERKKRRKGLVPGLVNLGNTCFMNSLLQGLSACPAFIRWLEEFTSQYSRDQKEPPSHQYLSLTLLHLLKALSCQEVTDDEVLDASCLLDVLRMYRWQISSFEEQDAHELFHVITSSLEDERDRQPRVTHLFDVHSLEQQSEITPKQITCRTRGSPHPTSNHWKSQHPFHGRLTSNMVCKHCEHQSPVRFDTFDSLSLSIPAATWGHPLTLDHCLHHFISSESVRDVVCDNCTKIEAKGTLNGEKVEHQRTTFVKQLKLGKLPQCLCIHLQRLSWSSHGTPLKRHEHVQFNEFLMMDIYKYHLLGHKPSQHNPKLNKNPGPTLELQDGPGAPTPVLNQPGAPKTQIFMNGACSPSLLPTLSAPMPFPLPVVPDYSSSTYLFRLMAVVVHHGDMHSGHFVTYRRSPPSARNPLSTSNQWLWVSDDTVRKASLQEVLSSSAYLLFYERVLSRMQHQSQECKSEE

| Structure (SMILES) | IC50 (USP30) [µM] | IC50 [1, 2] [µM] | IC50 [1, 3] [µM] |
| --- | --- | --- | --- |
| C[C@H](NS(=O)(=O)c1ccc(NC(=O)[C@H](Cc2ccccc2)NC(=O)c2ccc(F)cc2)cc1)C(F)(F)F [Compound I-13, 4-fluoro-N-((S)-1-oxo-3-phenyl-1-(4-(N-((S)-1,1,1-trifluoropropan-2-yl)sulfamoyl)phenylamino)propan-2-yl)benzamide] | < 0.05 | 0.05 to 1 | – |
| O=C(N[C@@H](Cc1ccccc1)C(=O)Nc1ccc(S(=O)(=O)NCC(F)(F)F)cc1)c1ccc(F)cc1 [Compound I-23, (S)-4-fluoro-N-(1-oxo-3-phenyl-1-(4-(N-(2,2,2-trifluoroethyl)sulfamoyl)phenylamino)propan-2-yl)benzamide] | < 0.05 | 0.05 to 1 | – |
| CC(C)(NS(=O)(=O)c1ccc(NC(=O)[C@H](Cc2ccccc2)NC(=O)c2ccc(F)cc2)cc1)C(F)(F)F [Compound I-25, (S)-4-fluoro-N-(1-oxo-3-phenyl-1-(4-(N-(1,1,1-trifluoro-2-methylpropan-2-yl)sulfamoyl)phenylamino)propan-2-yl)benzamide] | < 0.05 | – | < 0.05 |
| CNS(=O)(=O)c1ccc(NC(=O)[C@H](Cc2ccccc2)NC(=O)c2ccc(F)cc2)cc1 [Compound I-30, (S)-4-fluoro-N-(1-(4-(N-methylsulfamoyl)phenylamino)-1-oxo-3-phenylpropan-2-yl)benzamide] | 0.05 to 1 | 0.05 to 1 | – |
| CN1CCC(NS(=O)(=O)c2ccc(NC(=O)[C@H](Cc3ccccc3)NC(=O)c3ccc(F)cc3)cc2)CC1 [Compound I-33, (S)-4-fluoro-N-(1-(4-(N-(1-methylpiperidin-4-yl)sulfamoyl)phenylamino)-1-oxo-3-phenylpropan-2-yl)benzamide] | 0.05 to 1 | 0.05 to 1 | – |
| CN(C(=O)c1ccc(F)cc1)[C@@H](Cc1ccccc1)C(=O)Nc1ccc(S(=O)(=O)NC2COC2)cc1 [Compound I-70, (S)-4-fluoro-N-methyl-N-(1-(4-(N-oxetan-3-ylsulfamoyl)phenylamino)-1-oxo-3-phenylpropan-2-yl)benzamide] | 1 to 10 | 1 to 10 | – |
| CN(C(=O)c1ccc(F)cc1)[C@@H](Cc1ccccc1)C(=O)Nc1ccc(S(=O)(=O)NC23CC(C2)C3)cc1 [Compound I-72, (S)-N-(1-(4-(N-bicyclo[1.1.1]pentan-1-ylsulfamoyl)phenylamino)-1-oxo-3-phenylpropan-2-yl)-4-fluoro-N-methylbenzamide] | 1 to 10 | 1 to 10 | – |
| O=C(N[C@@H](Cc1ccccc1)C(=O)Nc1ccc(S(=O)(=O)NC23CC(C2)C3)cc1)c1ccc(F)cn1 [Compound I-73, (S)-N-(1-(4-(N-bicyclo[1.1.1]pentan-1-ylsulfamoyl)phenylamino)-1-oxo-3-phenylpropan-2-yl)-5-fluoropicolinamide] | < 0.05 | 0.05 to 1 | – |
| O=C(N[C@@H](Cc1ccccc1)C(=O)Nc1ccc(S(=O)(=O)NC2CCCC2)cc1)c1ccc(F)cn1 [Compound I-74, (S)-N-(1-(4-(N-cyclopentylsulfamoyl)phenylamino)-1-oxo-3-phenylpropan-2-yl)-5-fluoropicolinamide] | 0.05 to 1 | 0.05 to 1 | – |
| O=C(N[C@@H](Cc1ccccc1)C(=O)Nc1ccc(S(=O)(=O)NC2CCC2)cc1)c1ccc(F)cn1 [Compound I-75, (S)-N-(1-(4-(N-cyclobutylsulfamoyl)phenylamino)-1-oxo-3-phenylpropan-2-yl)-5-fluoropicolinamide] | 0.05 to 1 | 0.05 to 1 | – |
| O=C(N[C@@H](Cc1ccccc1)C(=O)Nc1ccc(S(=O)(=O)NC23CC(C2)C3)cc1)c1ccccn1 [Compound I-76, (S)-N-(1-(4-(N-bicyclo[1.1.1]pentan-1-ylsulfamoyl)phenylamino)-1-oxo-3-phenylpropan-2-yl)picolinamide] | 0.05 to 1 | 1 to 10 | – |
| O=C(N[C@@H](Cc1ccccc1)C(=O)Nc1ccc(S(=O)(=O)NC2CCCC2)cc1)c1ccccn1 [Compound I-77, (S)-N-(1-(4-(N-cyclopentylsulfamoyl)phenylamino)-1-oxo-3-phenylpropan-2-yl)picolinamide] | 0.05 to 1 | 0.05 to 1 | – |
| O=C(N[C@@H](Cc1ccccc1)C(=O)Nc1ccc(S(=O)(=O)NC2CCC2)cc1)c1ccccn1 [Compound I-78, (S)-N-(1-(4-(N-cyclobutylsulfamoyl)phenylamino)-1-oxo-3-phenylpropan-2-yl) picolinamide] | 0.05 to 1 | 1 to 10 | – |
| O=C(N[C@@H](Cc1ccccc1)C(=O)Nc1ccc(S(=O)(=O)NC23CC(C2)C3)cc1)c1cccnc1 [Compound I-79, (S)-N-(1-(4-(N-bicyclo[1.1.1]pentan-1-ylsulfamoyl)phenylamino)-1-oxo-3-phenylpropan-2-yl)nicotinamide] | 0.05 to 1 | 1 to 10 | – |
| O=C(N[C@@H](Cc1ccccc1)C(=O)Nc1ccc(S(=O)(=O)NC2CCC2)cc1)c1cccnc1 [Compound I-81, (S)-N-(1-(4-(N-cyclobutylsulfamoyl)phenylamino)-1-oxo-3-phenylpropan-2-yl)nicotinamide] | 0.05 to 1 | 0.05 to 1 | – |
| CC(C)(C)NS(=O)(=O)c1ccc(NC(=O)[C@H](Cc2ccccc2)N2CCc3ccccc3C2=O)cc1 [Compound I-84, (S)-N-(4-(N-tert-butylsulfamoyl)phenyl)-2-(1-oxo-3,4-dihydroisoquinolin-2(1H)-yl)-3-phenylpropanamide] | 0.05 to 1 | 0.05 to 1 | – |
| CC(C)(C)NS(=O)(=O)c1ccc(NC(=O)[C@H](Cc2ccccc2)NC(=O)c2ccc(F)cn2)cc1 [Compound I-85, (S)-N-(1-(4-(N-tert-butylsulfamoyl)phenylamino)-1-oxo-3-phenylpropan-2-yl)-5-fluoropicolinamide] | 0.05 to 1 | – | < 0.05 |
| CC(C)(C)NS(=O)(=O)c1ccc(NC(=O)[C@H](Cc2ccccc2)NC(=O)c2cccnc2)cc1 [Compound I-87, (S)-N-(1-(4-(N-tert-butylsulfamoyl)phenylamino)-1-oxo-3-phenylpropan-2-yl)nicotinamide] | 0.05 to 1 | 0.05 to 1 | – |
| CC(C)(C)NS(=O)(=O)c1ccc(NC(=O)[C@H](Cc2ccccc2)NC(=O)c2cccc(F)c2)cc1 [Compound I-88, (S)-N-(1-(4-(N-tert-butylsulfamoyl)phenylamino)-1-oxo-3-phenylpropan-2-yl)-3-fluorobenzamide] | < 0.05 | 0.05 to 1 | – |
| CN(C(=O)c1ccc(F)cc1)[C@@H](Cc1cccnc1)C(=O)Nc1ccc(S(=O)(=O)NC2COC2)cc1 [Compound I-89, (S)-4-fluoro-N-methyl-N-(1-(4-(N-oxetan-3-ylsulfamoyl)phenylamino)-1-oxo-3-(pyridin-3-yl)propan-2-yl)benzamide] | 1 to 10 | – | > 10 |
| CCNS(=O)(=O)c1ccc(NC(=O)[C@H](Cc2cccnc2)N(C)C(=O)c2ccc(F)cc2)cc1 [Compound I-90, (S)-N-(1-(4-(N-ethylsulfamoyl)phenylamino)-1-oxo-3-(pyridin-3-yl)propan-2-yl)-4-fluoro-N-methylbenzamide] | > 10 | 1 to 10 | – |
| CN(C(=O)c1ccc(F)cc1)[C@@H](Cc1cccnc1)C(=O)Nc1ccc(S(=O)(=O)NC(C)(C)C)cc1 [Compound I-91, (S)-N-(1-(4-(N-tert-butylsulfamoyl)phenylamino)-1-oxo-3-(pyridin-3-yl)propan-2-yl)-4-fluoro-N-methylbenzamide] | 0.05 to 1 | 0.05 to 1 | – |
| CN(C(=O)c1ccc(F)cc1)[C@@H](Cc1cccnc1)C(=O)Nc1ccc(S(=O)(=O)NC23CC(C2)C3)cc1 [Compound I-92, (S)-N-(1-(4-(N-bicyclo[1.1.1]pentan-1-ylsulfamoyl)phenylamino)-1-oxo-3-(pyridin-3-yl)propan-2-yl)-4-fluoro-N-methylbenzamide] | 1 to 10 | 1 to 10 | – |
| O=C(N[C@@H](Cc1ccccc1)C(=O)Nc1ccc(S(=O)(=O)NC2COC2)cc1)c1cccc(F)c1 [Compound I-94, (S)-3-fluoro-N-(1-(4-(N-oxetan-3-ylsulfamoyl)phenylamino)-1-oxo-3-phenylpropan-2-yl)benzamide] | 0.05 to 1 | 0.05 to 1 | – |
| O=C(N[C@@H](Cc1ccccc1)C(=O)Nc1ccc(S(=O)(=O)NC23CC(C2)C3)cc1)c1cccc(F)c1 [Compound I-95, (S)-N-(1-(4-(N-bicyclo[1.1.1]pentan-1-ylsulfamoyl)phenylamino)-1-oxo-3-phenylpropan-2-yl)-3-fluorobenzamide] | 0.05 to 1 | 0.05 to 1 | – |
| Cc1cc(NC(=O)[C@H](Cc2ccccc2)NC(=O)c2ccc(F)cc2)ccc1S(=O)(=O)NC(C)(C)C [Compound I-96, (S)-N-(1-(4-(N-tert-butylsulfamoyl)-3-methylphenylamino)-1-oxo-3-phenylpropan-2-yl)-4-fluorobenzamide] | 0.05 to 1 | – | < 0.05 |
| Cc1cc(NC(=O)[C@H](Cc2ccccc2)NC(=O)c2ccc(F)cn2)ccc1S(=O)(=O)NC12CC(C1)C2 [Compound I-98, (S)-N-(1-(4-(N-bicyclo[1.1.1]pentan-1-ylsulfamoyl)-3-methylphenylamino)-1-oxo-3-phenylpropan-2-yl)-5-fluoropicolinamide] | 0.05 to 1 | 0.05 to 1 | – |
| O=C(N[C@H](Cc1ccccc1)C(=O)Nc1ccc(S(=O)(=O)NC23CC(C2)C3)cc1)c1ccc(F)cc1 [Compound I-99, (R)-N-(1-(4-(N-bicyclo[1.1.1]pentan-1-ylsulfamoyl)phenylamino)-1-oxo-3-phenylpropan-2-yl)-4-fluorobenzamide] | > 10 | – | > 10 |
